Source: patent US8623897B2, “Methods and compositions for treatment of diabetes and dyslipidemia” (Kareus Therapeutics, SA, priority 2010, dated 2014)

How the values were obtained:
[1] = system: obese diabetic C57BLKS db/db mice; test: In vivo efficacy in diabetic db/db mice (plasma glucose, triglycerides, HOMA index); design: species or system mouse; conditions: male db/db mice, after 1-2 weeks of treatment; for Plasma Triglycerides (% change compared to vehicle) / Plasma glucose (% change compared to vehicle): 6 h fast; for Insulin resistance HOMA index (% change compared to vehicle): HOMA = I0×G0/405
Protocol: Male obese diabetic C57BLKS db/db mice (6 weeks old) were procured from the Jackson Laboratory (Bar Harbor, Me.) and were maintained on LabDiet 5K52 ad libitum with access to water. Animals were kept in a temperature-controlled room on a 12:12-h light-dark cycle. Experiments were performed on 6-9 week old mice.
Blood samples were collected after a 6 h fast on day 0 (baseline) and at the end week 1 and week 2 (day 7 and day 14) for analysis of glucose, triglycerides, total cholesterol, insulin and free fatty acid levels. Body weight and feed intake was measured twice weekly. Before initiation of the treatment, the animals were randomized based on plasma glucose levels into treatment groups (n=8 per group). The animals were administered the test compounds in 0.5% carboxymethylcellulose in water at the mentioned doses for two weeks by oral gavage. The control animals received the vehicle (0.5% carboxymethylcellulose in water) alone. Compound administration was continued till day 16.
Plasma glucose (PG) and triglycerides (TG) were measured spectrophotometrically in a microplate reader using reagent kits (Labkit, Merck) according to the manufacturer's instructions. Plasma insulin was measured by ELISA using a Rat/Mouse kit from Millipore (Cat. No. EZRMI-13K).
The percentage reduction was calculated according to the following formula
[formula] Statistical analysis was carried out by one way ANOVA followed by Dunnett's test using GraphPad Prism.
Determination of Homeostatic model assessment of insulin resistance (HOMA)—The HOMA index for insulin resistance was calculated using the formula— I0×G0/405 Where I0 is the fasting insulin (μU/ml), G0 is the fasting glucose in mg/dL. A factor of 6.945 was used for the conversion of insulin pmol/L to μlU/L).
The table below summarizes the effect on plasma glucose, triglycerides, and insulin resistance after 1-2 weeks of treatment with representative compounds of Formula I. Example numbers denote the products of examples given above. The data presented in the table is representative and should not be read as limiting the invention to the specific examples listed in the Table.

| melting point [°C] | Structure (SMILES) | further results |
| --- | --- | --- |
| 71.9 to 74.3 | O=C(O)CC1(CCCCCCCCCCC2(C(=O)O)CC2)CC1 [Example 23, 1-[10-(1-Carboxymethyl-cyclopropyl)-decyl]-cyclopropanecarboxylic acid] | – |
| 75.3 to 78.9 | O=C(O)CC1(CCCCCCCCCCCC2(C(=O)O)CC2)CC1 [Example 30, 1-[11-(1-Carboxymethyl-cyclopropyl)-undecyl]-cyclopropanecarboxylic acid] | – |
| 112.5 to 113.5 | O=C(NCCO)C1(CCCCCCCCCCCCC2(C(=O)NCCO)CC2)CC1 [Example 40, 1,1′-dodecane-1,12-diylbis[N-(2-hydroxyethyl)cyclopropanecarboxamide]] | – |
| 36.4 to 37.6 | COCC1(CCCCCCCCCCCCC2(C(=O)O)CC2)CC1 [Example 15, 1-[12-(1-Methoxymethyl-cyclopropyl)-dodecyl]-cyclopropanecarboxylic acid] | Plasma Triglycerides (% change compared to vehicle) ([1]; 15 mg/kg oral gavage): −35%; Plasma glucose (% change compared to vehicle) ([1]; 15 mg/kg oral gavage): −56%; Insulin resistance HOMA index (% change compared to vehicle) ([1]; 15 mg/kg oral gavage): −92% |
| 54 to 54.8 | O=C(O)C1(CCCCCCCCCCCCC2(C(F)F)CC2)CC1 [Example 39, 1-[12-(1-Difluoromethyl-cyclopropyl)-dodecyl]-cyclopropanecarboxylic acid] | – |
| 53.5 to 54.5 | COC(=O)C1(CCCCCCCCCCCCC2(C(=O)NS(C)(=O)=O)CC2)CC1 [Example 36, 1-[12-(1-Methanesulfonylaminocarbonyl-cyclopropyl)-dodecyl]-cyclopropanecarboxylic acid methyl ester] | – |
| 50.6 to 53 | COC(=O)C1(CCCCCCCCCCCCC2(C(=O)NC3CC3)CC2)CC1 [Example 34, 1-[12-(1-cyclopropylcarbamoyl-cyclopropyl)-dodecyl]-cyclopropane-carboxylic acid methyl ester] | – |
| 97.5 to 99.4 | CS(=O)(=O)NC(=O)C1(CCCCCCCCCCCCC2(C(=O)O)CC2)CC1 [Example 37, 1-[12-(1-Methanesulfonylaminocarbonyl-cyclopropyl)-dodecyl]-cyclopropanecarboxylic acid] | Plasma glucose (% change compared to vehicle) ([1]; 15 mg/kg oral gavage): −59% |
| 81.1 to 83.8 | O=C(O)C1(CCCCCCCCCCCCC2(C(=O)NCCO)CC2)CC1 [Example 42, 1-{12-[1-(2-hydroxy-ethylcarbamoyl)-cyclopropyl]-dodecyl}-cyclopropane carboxylic acid] | – |
| 95.3 to 97.7 | O=C(O)C1(CCCCCCCCCCCCC2(C(=O)NC3CC3)CC2)CC1 [Example 35, 1-[12-(1-Cyclopropylcarbamoyl-cyclopropyl)-dodecyl]-cyclopropane carboxylic acid] | Plasma glucose (% change compared to vehicle) ([1]; 15 mg/kg oral gavage): −30% |

The remaining lines, values behind:

| Structure (SMILES) | melting point [°C] | further results |
| --- | --- | --- |
| CCOC(=O)C1(CCCCCCCCCCCCC2(C(=O)OCC)CC2)CC1 [Example 10, 2,15-Dicyclopropyl-hexadecanedoic acid diethyl ester] | – | Plasma Triglycerides (% change compared to vehicle) ([1]; 15 mg/kg oral gavage): −23%; Plasma glucose (% change compared to vehicle) ([1]; 15 mg/kg oral gavage): −51% |
| CC(C)(CCCCCCCCCCCCC1(C(=O)O)CC1)C(=O)O | 85.6 to 86.7 | – |
| O=C(O)C1(CCCCCCCCCCCCC2(C(=O)O)CC2)CC1 [Example 1, 2,15-Dicycloproryl-hexadecanedioic acid] | – | Plasma glucose (% change compared to vehicle) ([1]; 10 mg/kg oral gavage): −52%; Insulin resistance HOMA index (% change compared to vehicle) ([1]; 10 mg/kg oral gavage): −65% |
| N#CC1(CCCCCCCCCCCCC2(C(=O)O)CC2)CC1 | 44.4 to 46.9 | – |
| N#CC1(CCCCCCCCCCCCC2(C#N)CC2)CC1 | 45 to 46.9 | – |
| NC(=O)C1(CCCCCCCCCCCCC2(C(=O)O)CC2)CC1 [Example 12] | 116.6 to 118.1 | Plasma Triglycerides (% change compared to vehicle) ([1]; 20 mg/kg oral gavage): −28%; Plasma glucose (% change compared to vehicle) ([1]; 20 mg/kg oral gavage): −55%; Insulin resistance HOMA index (% change compared to vehicle) ([1]; 20 mg/kg oral gavage): −89% |
| O=C(O)CC1(CCCCCCCCCCC2(CC(=O)O)CC2)CC1 [Example 4, {1-[10-(1-carboxymethyl-cyclopropyl)-decyl]-cyclopropyl}-acetic acid] | – | Plasma Triglycerides (% change compared to vehicle) ([1]; 50 mg/kg oral gavage): −51%; Insulin resistance HOMA index (% change compared to vehicle) ([1]; 50 mg/kg oral gavage): −54% |
